*1 amine or outer side, *2 acyl side, *3 side chain or, on linkers, in order; H or OH if unused. Where a SMILES comes first, the peptide text is derived from it. Bridges are numbered along the chain shown (N, C = ends). [ ]: non-standard residue; d: D form. Trp(2-yl) = O=C([C@H](Cc1c([*:3])[nH]c2ccccc12)N[*:1])[*:2]; Leu(4R-OH,5-OH) = C[C@](O)(CO)C[C@H](N)C(=O)O; cisHyp = O=C(O)[C@@H]1C[C@H](O)CN1
Assays:
[1] = tested on: EGF-induced response of quiescent A431 cells; assay: Effect of compound pretreatment on EGF-induced DMR response; format: cell-based, human; details: quiescent A431 cells; 32 nM EGF
Experimental: Both A431 and CHO-K1 cells were grown in Dulbecco's modified Eagle's medium (DMEM) supplemented with 10% fetal calf serum, 100 μg/ml penicillin, and 100 μg/ml streptomycin. For cell culture, certain numbers of cells (2×10^5 to 1×10^6), either A431 or CHO-K1, were suspended in […] medium were placed in each well of a 96 well Corning Epic Biosensor microplate, and were cultured at 37° C. in air/5% CO2 for certain time until the cell density reached ˜90% and above (unless specified). The resulted cells were termed as “profilerating” cells. The “quiescent” cells were obtained by culturing the profilerating cells of desired confluencies with a medium containing no or little (˜0.1% fetal bovine serum (FBS)) for at least 16 hours.
During the assays, the cells in 100 μl medium were subject to two 25 μl HBSS buffer containing 20 mM HEPES, pH 7.4, each separated by at least 15 minutes before 50 μl stimulus-containing solution was applied. During all these steps, a parallel angular interrogation system was used to monitor the real time kinetics of cellular responses. For compound effect studies, a modified protocol was used which starts with 50 μl medium, and subject to sequential treatment: 25 μl HBSS buffer twice (each separated by at least 15 minutes), 50 μl compound solution and finally 50 μl stimulus-containing solution.

[2] = tested on: CHO cells; assay: Saponin-permeabilized cell assay for cytoskeleton modulators (LID biosensor); format: cell-based, Chinese hamster; details: saponin 67 ug/ml
Source text: The method involves the use of pore-forming reagents (e.g, saponin) to generate permeabilized cells which permit soluble proteins to diffuse away. It is known that treatment of the cells with many pore-forming reagents leads to permeabilized cells. Since intracellular macromolecules are highly organized within the cytoplasm of mammalian cells through direct binding to cytoskeletal elements, the permeabilized cells still retain most of the biological functions of living cells by sequestration of intracellular machinery through the cytoskeleton super-assembled structure, although the saponin-treated cells undergo the loss of some portions of biomacromolecules. However, upon disruption of microfilaments there is a dramatic reduction of protein synthesis accompanied by release of these translation components from the cells. Also, many other sequestered biomacromolecules are released from these permeabilized cells after disrupting the cytoskeleton structure. These further released materials from the permeabilized cells result in the loss in mass; thus resulting in the changes in effective refractive index of the cell layer on the surface of a LID biosensor which can be detected by LID biosensors. Thus, the changes obtained using optical biosensors can be used as an indicator of modulators that interfere with the cytoskeleton structure. In one embodiment, the present methods can be used to screen modulators that interfere with the cytoskeleton structure using the method 2500 shown in FIG. 25. In accordance with method 2500 one can monitor the mass redistribution due to pore formation of cell surface membranes induced by pore-forming reagents such as saponin in living cells 1008 by: (a) providing an optical LID biosensors 1004 (step 2502); (b) placing cells 1008 in a cell medium onto the said sensor 1004 (step 2504); (c) Optionally applying a buffer solution (step 2506); (d) applying a solution containing a compound into the cell mediums located on the top surfaces 1010 of covered optical LID biosensors 1004 (step 2508); applying a solution containing a pore-forming reagent (step 2510); and (e) interrogating the covered optical LID biosensors 1010 to monitor the time dependent optical responses which indicate mass redistributions within the permeabilized cells 1008 (step 2512). A Pore-forming reagent is a chemical or biological compound or composition that can result in the formation of pores in cell surface membranes when the cells are exposed to the reagent.
The pore-forming regents include detergents such as saponin and filipin, or toxin such as digitonin or streptolysin O. It is well known that treatment of the cells with these reagents can result in the pore formation in cell surface membrane; the resulted permeabilized cells can release a certain amount of intracellular material, mainly soluble proteins. However, there are a great number of bio-materials that still stay with these permeabilized cells due to the sequestration by directly binding or association with the cytoskeleton structure. As a matter of fact, these permeabilized cells retain many of the biological functions of living cells such as protein synthesis.
FIG. 50 presents the dose-dependent responses of CHO cells adherent on the surface of a LID sensor in response to saponin as a function of time. After the addition of saponin at different concentrations, a different response is evident. At low concentration, there is almost no response. […]

[3] = target: T1, protease activated receptors PAR1 and PAR2 (Homo sapiens, UniProt P25116); format: cell-based; details: 40 unit/ml thrombin; modulators 10 μM
T1 construct: A431 cells which endogenously express PAR1 and PAR2; endogenous in cells; host or cells: A431
T1 sequence (P25116 22-425): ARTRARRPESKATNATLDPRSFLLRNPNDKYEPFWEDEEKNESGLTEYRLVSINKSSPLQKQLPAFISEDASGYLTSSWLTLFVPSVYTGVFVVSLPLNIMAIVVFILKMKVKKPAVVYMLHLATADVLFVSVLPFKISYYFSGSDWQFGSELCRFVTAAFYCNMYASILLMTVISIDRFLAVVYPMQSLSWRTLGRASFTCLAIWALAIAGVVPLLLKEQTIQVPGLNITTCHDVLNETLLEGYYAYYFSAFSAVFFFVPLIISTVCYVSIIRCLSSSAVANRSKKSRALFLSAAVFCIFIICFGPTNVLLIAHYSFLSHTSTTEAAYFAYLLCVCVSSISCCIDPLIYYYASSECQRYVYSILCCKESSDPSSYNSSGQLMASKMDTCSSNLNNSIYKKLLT
Experimental: (§1) Human epidermoid carcinoma A431 cells (American Type Cell Culture) were grown in Dulbecco's modified Eagle's medium (DMEM) supplemented with 10% fetal bovine serum (FBS), 4.5 g/liter glucose, 2 mM glutamine, and antibiotics. ˜3-7.5×10^4 cells at passage 3 to 5 suspended in 200 μl the DMEM medium containing 10% FBS were placed in each well of a 96 well microplate, and were cultured at 37° C. under air/5% CO2 until ˜95% confluency was reached (˜2-4 days).
(§2) The compound or PAR agonist solutions were made in 1×HBSS in order to match the refractive index between the cell medium and compound solution, thus minimizing the unwanted effect of bulk index change due to the introduction of compound solution which can temporarily overwhelms any DMR signal as it occurs.

[4] = tested on: protease activated receptors PAR1 and PAR2; format: cell-based, human; details: 100 or 200 nM trypsin; modulators 10 μM
Experimental: as §1, §2

[5] = tested on: CHO cells; assay: Biosensor-based cell toxicity (real-time DMR, TM0 resonant peak and band image); parameters: species or system Chinese hamster; details: for TM0 mode resonance band image: 25 min
Source text: Profiling compounds by virtue of their cytotoxic and anti-proliferative effects is often used to profile potential anticancer agents. One such phenotype is the compromise in plasma membrane integrity when cells are exposed to cytotoxic agents, including dimethyl sulfoxide (DMSO). Using a waveguide-based biosensor technique, the feasibility for monitoring the effect of DMSO on both Chinese hamster ovary (CHO) and A431 cells was examined. Approximately 10×10^5 cells were placed into each well of a Corning Epic LID microplate. These cells were cultured in serum medium for overnight to ensure that the cells became adherent to the substrate surface and reach at least 80% confluence. The response of cells to DMSO at different concentrations (1%, 2%, 5%, 10%, 15%, 18% and 20%) was examined. Higher concentrations of ˜≧25% of DMSO result in bulk index changes which are beyond the maximum dynamic range of the sensor used and the signal was lost. At least two sets of experiments were carried out for each cell line.
Both A431 and CHO-K1 cells were grown in Dulbecco's modified Eagle's medium (DMEM) supplemented with 10% fetal calf serum, 100 μg/ml penicillin, and 100 μg/ml streptomycin. For cell culture, ˜10×10^5 cells, either A431 or CHO-K1, were suspended in 200 μl medium were placed in each well of a 96 well Corning Epic Biosensor microplate, and were cultured at 37° C. in air/5% CO2 for overnight. Before the assays, the cells were washed once with the corresponding medium. During the assays, the cells in 100 μl medium were subject to two 25 μl HBSS buffer solutions containing 20 mM HEPES, pH 7.4, each separated by at least 15 minutes before 50 μl DMSO solution was applied. During all these steps, a parallel angular interrogation system was used to monitor the real time kinetics of cellular responses.
In one embodiment, the present invention provides a method for high throughput screening compound toxicity on cells using optical biosensors, which comprises of: (a) Provide a microplate that there is an optical-based label free biosensor embedded in the bottom of each well; (b) Place cells into each well to cover the biosensor such that the cells attach and reach high confluency onto the surface of the biosensor; (c) Apply a compound solution into the cell medium of each well; (e) Collect optical waveguide lightmode spectra at certain time. Comparing the PWHM of each compound with a control well wherein the cells are not exposed to any compound solution, the toxicity of compounds can be evaluated using the single data point. If necessary, time-dependent PWHM changes can be also recorded to study the kinetics.
In another embodiment, the present invention provides alternative methods to evaluate compound toxicity, which comprises of: (a) Provide a microplate that there is an optical-based label free biosensor embedded in the bottom of each well; (b) Place cells into each well to cover the biosensor such that the cells attach and reach desired confluency onto the surface of the biosensor; (c) Apply a compound solution into the cell medium of each well; (e) Collect images of TM0 mode resonance angular band of the whole sensor area of each well at certain time. Comparing the widths of the resonant bands of sensors that have been treated with a compound solution with that of a control well wherein the cells are not exposed to any compound solution; the toxicity of compounds can be evaluated.

Row | Structure (SMILES) | Effect of pretreatment on 32 nM EGF-induced response [1] | Effect of compound pre-treatment on saponin-induced response (loss of biomaterials) [2] | Effect of pretreatment on thrombin-mediated DMR signal [3] | Effect of pretreatment on trypsin-mediated DMR signal [4] | other results
1 | CC[C@]1(O)C[C@@H]2CN(CCc3c([nH]c4ccccc34)[C@@](C(=O)OC)(c3cc4c(cc3OC)N(C)[C@H]3[C@@](O)(C(=O)OC)[C@H](OC(C)=O)[C@]5(CC)C=CCN6CC[C@]43[C@@H]65)C2)C1 [vinblastine] | hardly any effect on the EGF-induced response | block the saponin-induced loss of biomaterials from the cells |  |  | 
2 | C[C@@H]1NC(=O)[C@H](C[C@@](C)(O)CO)NC(=O)[C@@H]2Cc3c([nH]c4ccccc34)SC[C@H](NC(=O)[C@@H]([C@H](C)O)NC1=O)C(=O)N1C[C@@H](O)C[C@H]1C(=O)N[C@@H](C)C(=O)N2 [phalloidin] (cyclo(A[dT]C[cisHyp]A[Trp(2-yl)][Leu(4R-OH,5-OH)]); thioether 3-6) | hardly any effect on the EGF-induced response | delay the loss of biomaterials in saponin-treated cells | neither a stabilizing polymeric F-actin agent phalloidin nor a microtubule disrupter nocodazole had significant effect | neither a stabilizing polymeric F-actin agent phalloidin nor a microtubule disrupter nocodazole had significant effect | 
3 | C[C@H]1CCC/C=C/[C@@H]2C[C@H](O)C[C@H]2[C@H](O)/C=C/C(=O)O1 [brefeldin A] |  | show no effect on a saponin-induced response |  |  | 
4 | C[S+](C)[O-] [DMSO, dimethyl sulfoxide] | a little effect on the EGF-induced response |  |  |  | TM0 mode resonance band image ([5]; 18% DMSO, confluency above 70%): DMSO-induced resonance band broadening; PWHM of TM0 resonant peak over time ([5]; 18% DMSO, cell density below ~25%): no change in the PWHM value over time; PWHM of TM0 resonant peak over time ([5]; 18% DMSO, confluency >70%): an initial increase in PWHM followed by decreasing PWHM value; DMSO-induced time-dependent response of cell layer, event D ([5]; DMSO 20%): a prolonged and decreased signal due to the loss of proteins or other biological molecules of cells caused by the toxicity of high concentrations of DMSO; DMSO-induced time-dependent response of cell layer ([5]; DMSO concentration <20%): the response is almost featureless; TM0 mode resonance band image ([5]; ~15% DMSO, ~95% confluency): a second resonance band appearing; TM0 mode resonance band image, dependence on DMSO concentration ([5]; ~95% confluency, 25 min treatment): only higher concentrations cause significant cell toxicity
5 | C=C1[C@@H](C)[C@H]2[C@H](Cc3ccccc3)NC(=O)[C@]23OC(=O)/C=C/[C@H](O)CCC[C@@H](C)C/C=C/[C@H]3[C@@H]1O [cytochalasin B] | totally abolished the N-DMR signal | cause increased loss of biomaterials | much less effective in suppressing the responses | much less effective in suppressing the responses | 

— patent US8852876B2, “Label free biosensors and cells” (Corning Incorporated, priority 2008, dated 2014)
